The text below walks through data of patent US6413935B1, “Induction of immune response against desired determinants” (priority 1993, dated 2002).

Values joined by “and” are separate entries in the source; they are usually repeats but may differ in a detail not shown here. Equal values may be shown once. Read-outs that look alike come from different tables or passages of the source. A value given as a limit tells only on which side of the number the result lay.

For one test, the system named is IE^k. Type of test: binding, mouse. As to conditions: Table III; read-out: Capacity to bind purified IE^k, IC50.
In a further test the target is T1, IA^b (Mus musculus, UniProt P14434+P14483).
T1 construct: Various cell lines were used as sources of purified human and mouse class II molecules; endogenous in cells; host or cells: DB27.4
T1 sequence (P14434 24-256): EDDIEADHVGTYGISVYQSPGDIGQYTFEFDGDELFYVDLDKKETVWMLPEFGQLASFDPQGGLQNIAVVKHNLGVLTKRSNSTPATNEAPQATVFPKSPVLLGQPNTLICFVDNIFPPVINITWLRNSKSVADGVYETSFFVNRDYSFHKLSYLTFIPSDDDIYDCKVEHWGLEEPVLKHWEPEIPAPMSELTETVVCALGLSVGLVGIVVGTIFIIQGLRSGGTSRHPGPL
T1 sequence (P14483 28-265): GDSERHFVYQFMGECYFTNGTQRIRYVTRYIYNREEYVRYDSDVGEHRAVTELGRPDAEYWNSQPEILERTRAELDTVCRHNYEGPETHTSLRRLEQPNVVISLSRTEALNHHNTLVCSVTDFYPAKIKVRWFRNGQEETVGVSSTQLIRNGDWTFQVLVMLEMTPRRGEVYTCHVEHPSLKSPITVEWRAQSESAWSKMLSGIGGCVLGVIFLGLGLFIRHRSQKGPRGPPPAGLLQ
The test is described as follows: biochemical. The class given is binding.

A further test deals with T2, IA^d (Mus musculus, UniProt P01921+P04228).
T2 construct: Various cell lines were used as sources of purified human and mouse class II molecules; endogenous in cells; host or cells: A20
T2 sequence (P04228 24-256): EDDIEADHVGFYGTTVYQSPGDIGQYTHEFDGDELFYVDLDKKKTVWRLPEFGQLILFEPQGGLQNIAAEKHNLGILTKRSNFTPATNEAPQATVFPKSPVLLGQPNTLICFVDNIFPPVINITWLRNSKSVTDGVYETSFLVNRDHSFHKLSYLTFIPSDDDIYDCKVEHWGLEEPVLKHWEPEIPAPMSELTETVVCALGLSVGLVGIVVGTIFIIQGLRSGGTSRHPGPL
T2 sequence (P01921 28-265): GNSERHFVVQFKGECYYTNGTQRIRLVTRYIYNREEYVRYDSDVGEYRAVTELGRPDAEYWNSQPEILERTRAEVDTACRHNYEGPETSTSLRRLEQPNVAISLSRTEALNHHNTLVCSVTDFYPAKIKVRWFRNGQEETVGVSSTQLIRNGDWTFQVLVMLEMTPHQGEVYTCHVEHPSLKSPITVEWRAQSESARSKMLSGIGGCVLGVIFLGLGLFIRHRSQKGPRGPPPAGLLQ
Description: biochemical. As to conditions: Table III; read-out: Capacity to bind purified IA^d, IC50. Type of test: binding.

The next test has as its target T3, IE^d (Mus musculus, UniProt P01904+P01915).
T3 construct: Various cell lines were used as sources of purified human and mouse class II molecules; endogenous in cells; host or cells: A20
T3 sequence (P01904 26-255): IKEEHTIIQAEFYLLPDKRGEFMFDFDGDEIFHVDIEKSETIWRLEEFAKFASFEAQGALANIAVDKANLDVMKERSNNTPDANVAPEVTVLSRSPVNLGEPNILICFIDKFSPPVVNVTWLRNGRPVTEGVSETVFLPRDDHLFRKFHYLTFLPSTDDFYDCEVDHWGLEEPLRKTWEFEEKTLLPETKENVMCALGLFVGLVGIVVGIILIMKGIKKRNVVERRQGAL
T3 sequence (P01915 27-264 limits assumed): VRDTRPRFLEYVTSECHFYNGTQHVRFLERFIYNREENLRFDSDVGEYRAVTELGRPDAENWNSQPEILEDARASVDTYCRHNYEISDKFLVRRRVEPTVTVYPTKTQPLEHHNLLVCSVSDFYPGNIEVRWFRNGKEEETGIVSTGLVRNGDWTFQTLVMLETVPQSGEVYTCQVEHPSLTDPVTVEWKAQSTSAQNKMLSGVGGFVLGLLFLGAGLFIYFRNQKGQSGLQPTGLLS
Description: biochemical. Type of test: binding.

The next test concerns the target T4, IA^s (Mus musculus, UniProt P06345+P14437).
T4 construct: Various cell lines were used as sources of purified human and mouse class II molecules; endogenous in cells; host or cells: LS102.9
T4 sequence (P14437 1-233): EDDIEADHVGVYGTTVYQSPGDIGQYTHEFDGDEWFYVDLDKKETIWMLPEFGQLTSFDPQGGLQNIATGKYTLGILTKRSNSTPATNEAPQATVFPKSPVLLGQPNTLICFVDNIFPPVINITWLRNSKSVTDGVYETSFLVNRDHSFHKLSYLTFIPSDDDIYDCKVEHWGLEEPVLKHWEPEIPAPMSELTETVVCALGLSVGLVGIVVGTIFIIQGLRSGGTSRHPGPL
T4 sequence (P06345 28-263): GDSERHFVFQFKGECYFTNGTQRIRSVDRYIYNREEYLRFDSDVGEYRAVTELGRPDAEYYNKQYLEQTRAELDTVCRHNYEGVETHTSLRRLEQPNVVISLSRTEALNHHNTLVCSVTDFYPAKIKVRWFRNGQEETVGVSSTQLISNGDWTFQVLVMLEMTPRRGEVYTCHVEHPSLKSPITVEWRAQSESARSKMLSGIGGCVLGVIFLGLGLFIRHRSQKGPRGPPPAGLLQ
Description: biochemical. The class given is binding. As to conditions: Table III; read-out: Capacity to bind purified IA^s, IC50.

Another test concerns the target T5, IA^k (Mus musculus, UniProt P01910+P06343).
T5 construct: Various cell lines were used as sources of purified human and mouse class II molecules; endogenous in cells; host or cells: CH12
The test is described as follows: biochemical. The class given is binding. The conditions noted are these: Table III; read-out: Capacity to bind purified IA^k, IC50.

The test system of a further test is DR5. As to conditions: read-out: PADRE Class II Binding Affinities DR5, Table IX.
The next test relates to DR7. As to conditions: read-out: PADRE Class II Binding Affinities DR7; Table IX; listed as 965.012.
In the next test the target is DR1 (Homo sapiens, UniProt P01903+P01911, A100R/D57E/F55L/F60I/F76Y/I96L/L162R/M171V/P40L/Q125E/R42F/V115G/Y59C). Description: biochemical.
The next test concerns the target DR3 (Homo sapiens, UniProt P01903+P01911, A100K/A102G/A103R/A169T/F55Y/I96L/K41T/L162R/M171V/P40S/Q125H/Q178H/Q39Y/R42S/S66N/T106N/T262R/W38E/Y61H). Description: biochemical. The conditions noted are these: PADRE Class II Binding Affinities DR3, Table IX.
For a further test, the target named is DR2w2a (Homo sapiens, UniProt P01903+Q30154). The test is described as follows: biochemical. As to conditions: PADRE Class II Binding Affinities DR2w282, Table IX.
Sequence of DR2w2a (P01903 26-254): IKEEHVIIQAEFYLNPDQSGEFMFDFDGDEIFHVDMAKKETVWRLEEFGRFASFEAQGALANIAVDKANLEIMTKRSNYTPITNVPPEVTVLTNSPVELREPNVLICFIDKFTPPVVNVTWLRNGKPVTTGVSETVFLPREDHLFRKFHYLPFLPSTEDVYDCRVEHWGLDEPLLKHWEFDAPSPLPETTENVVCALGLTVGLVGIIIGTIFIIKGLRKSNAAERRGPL
Sequence of DR2w2a (Q30154 30-266): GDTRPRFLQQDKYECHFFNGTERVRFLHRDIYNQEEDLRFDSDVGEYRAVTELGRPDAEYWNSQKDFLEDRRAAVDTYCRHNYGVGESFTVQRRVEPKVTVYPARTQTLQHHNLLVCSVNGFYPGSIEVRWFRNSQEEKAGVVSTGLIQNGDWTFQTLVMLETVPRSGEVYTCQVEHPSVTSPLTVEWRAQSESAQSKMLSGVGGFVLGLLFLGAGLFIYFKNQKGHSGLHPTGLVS
Another test concerns human PBMC T cell lines. The class given is cell-based.
A further test has as its target DR4w4 (Homo sapiens, UniProt P01903+P01911, A100K/A169T/F76Y/I96L/K127E/L162R/M171V/N62H/P40V/Q125Y/R42H/S133A/S149N/S66Y/V115G/V209L/W38E). Description: biochemical. The conditions noted are these: PADRE Class II Binding Affinities DR4w4.
Another test concerns C57BL/6J (H-2^b+) mice. As to conditions: mouse, in vivo, sc.
The mark [1] stands for this setting: Table III, read-out: Capacity to bind purified IE^d, IC50.
The mark [2] stands for this setting: PADRE Class II Binding Affinities DR1, Table IX.

T5 sequence (P01910 24-256): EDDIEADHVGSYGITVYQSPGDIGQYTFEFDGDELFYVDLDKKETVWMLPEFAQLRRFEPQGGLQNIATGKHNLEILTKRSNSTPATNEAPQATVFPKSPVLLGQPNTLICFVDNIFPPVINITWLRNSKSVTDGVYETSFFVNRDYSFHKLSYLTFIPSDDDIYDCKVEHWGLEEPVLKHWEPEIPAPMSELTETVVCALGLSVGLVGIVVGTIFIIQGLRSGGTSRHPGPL
T5 sequence (P06343 28-263): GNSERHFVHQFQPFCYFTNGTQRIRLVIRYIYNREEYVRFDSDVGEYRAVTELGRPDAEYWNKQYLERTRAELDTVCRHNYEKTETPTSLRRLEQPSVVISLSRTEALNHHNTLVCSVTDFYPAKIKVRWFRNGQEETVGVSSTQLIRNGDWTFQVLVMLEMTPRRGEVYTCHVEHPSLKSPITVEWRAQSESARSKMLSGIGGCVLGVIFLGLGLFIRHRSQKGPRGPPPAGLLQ

As to `CC[C@H](C)[C@H](NC(=O)[C@@H]1CCCN1C(=O)[C@H](C)NC(=O)[C@H](CC(N)=O)NC(=O)[C@@H]1CCCN1C(=O)[C@@H]1CCCN1C(=O)[C@H](CCCNC(=N)N)NC(=O)[C@H](Cc1ccc(O)cc1)NC(=O)[C@H](C)NC(=O)[C@@H]1CCCN1C(=O)[C@@H]1CCCN1C(=O)[C@@H](N)[C@@H](C)O)C(=O)N[C@@H](CC(C)C)C(=O)O` [HBVc 128-140, reference compound], in the test with IE^k, the IC50 is over 10000 nM.
In the case of `CC[C@H](C)[C@H](NC(=O)CNC(=O)[C@H](Cc1ccc(O)cc1)NC(=O)[C@H](CC(=O)O)NC(=O)[C@@H](NC(=O)[C@H](CO)NC(=O)CNC(=O)[C@H](CC(=O)O)NC(=O)[C@@H](NC(=O)[C@@H](N)CC(N)=O)[C@@H](C)O)[C@@H](C)O)C(=O)N[C@@H](CC(C)C)C(=O)N[C@@H](CCC(N)=O)C(=O)N[C@H](C(=O)N[C@@H](CC(N)=O)C(=O)N[C@@H](CO)C(=O)N[C@@H](CCCNC(=N)N)C(=O)O)[C@@H](C)CC` [HEL46-61], the IC50 is 7000 nM against IA^b; 1220 nM on IA^d; 8500 nM on IE^d (setting [1]); over 10000 nM on IA^s; 20 nM on IA^k.
Take `CC[C@H](C)[C@H](NC(=O)[C@H](C)NC(=O)[C@H](CCCCN)NC(=O)[C@H](CC(C)C)NC(=O)[C@H](CCCNC(=N)N)NC(=O)[C@H](CCCNC(=N)N)NC(=O)[C@H](C)NC(=O)[C@H](CC(=O)O)NC(=O)[C@H](CCC(=O)O)NC(=O)[C@H](CC(C)C)NC(=O)[C@@H](N)Cc1ccc(O)cc1)C(=O)N[C@@H](Cc1ccc(O)cc1)C(=O)N[C@@H](CCC(=O)O)C(=O)N[C@@H](CCCCN)C(=O)N[C@@H](CCCCN)C(=O)N[C@@H](CCCCN)C(=O)O` [Iambda rep 12-26]: the IC50 is over 10000 nM against IA^b; 1100 nM on IA^d; 170 nM at IE^d (Allele IEd, read-out: Avg. IC50 of assay standard); over 10000 nM at IA^s; over 10000 nM at IA^k.
For the molecule `CC(C)C[C@H](NC(=O)[C@H](Cc1c[nH]c2ccccc12)NC(=O)[C@H](CCCCN)NC(=O)CNC(=O)[C@H](CC(C)C)NC(=O)[C@H](CO)NC(=O)[C@@H](N)Cc1c[nH]cn1)C(=O)NCC(=O)N[C@@H](Cc1c[nH]cn1)C(=O)N1CCC[C@H]1C(=O)N[C@@H](CC(=O)O)C(=O)N[C@@H](CCCCN)C(=O)N[C@@H](Cc1ccccc1)C(=O)O` [PLP 139-151], the IC50 at IA^b was over 3100 nM; at IA^d it was over 10000 nM; on IE^d (setting [1]), over 10000 nM; on IA^s, 86 nM; on IA^k, over 10000 nM.
As for `CC(C)C[C@H](NC(=O)[C@@H](NC(=O)[C@H](CC(N)=O)NC(=O)[C@H](C)NC(=O)[C@H](CCCCN)NC(=O)[C@@H](NC(=O)[C@H](CC1CCCCC1)NC(=O)[C@H](CCCCN)NC(=O)[C@@H](C)N)C(C)C)[C@@H](C)O)C(=O)N[C@@H](CCCCN)C(=O)N[C@@H](C)C(=O)N[C@@H](C)C(=O)N[C@H](C)C(N)=O` [Peptide 965.011], the IC50 in the test on DR5 was 11.8 nM; with DR5 (listed as 965.012) it was 2.2 nM; with DR7, 781 nM; at DR1 (setting [2]) it was 1.5 nM and 1.3 nM; on DR3 it was 592 nM and 4590 nM; on DR2w2a, 12.5 nM and 10.5 nM.
As to `CC(C)C[C@H](NC(=O)[C@@H](NC(=O)[C@H](Cc1ccc(O)cc1)NC(=O)[C@H](C)NC(=O)[C@H](C)NC(=O)[C@@H](NC(=O)[C@H](CC1CCCCC1)NC(=O)[C@H](CCCCN)NC(=O)[C@@H](C)N)C(C)C)[C@@H](C)O)C(=O)N[C@@H](CCCCN)C(=O)N[C@@H](C)C(=O)N[C@@H](C)C(=O)N[C@H](C)C(N)=O` [Peptide 965.091], the “Donors with significant (>10,000 cpm) T cell response / donors tested, second stimulation” value in the test with human PBMC T cell lines was 4/5. Moreover, the “Donors with significant (>10,000 cpm) T cell response / donors tested, third stimulation” value in the test with human PBMC T cell lines is on record as 4/5. Further, the IC50 was 6.5 nM in the test on DR5 (listed as 965.092); 0.8 nM at DR1 (PADRE Class II Binding Affinities DR1); 0.6 nM at DR1 (setting [2]); 450 nM and 3210 nM on DR3; 1 nM at DR4w4; 7.4 nM and 6.4 nM on DR2w2a.
Consider `CC[C@H](C)[C@H](NC(=O)CNC(=O)[C@@H](NC(=O)[C@H](Cc1ccccc1)NC(=O)[C@H](CCCCN)NC(=O)[C@H](CO)NC(=O)[C@H](CC(N)=O)NC(=O)[C@H](C)NC(=O)[C@H](CCCCN)NC(=O)[C@@H](NC(=O)[C@H](Cc1ccc(O)cc1)NC(=O)[C@@H](N)CCC(N)=O)[C@@H](C)CC)[C@@H](C)CC)C(=O)N[C@H](C(=O)N[C@@H](CCC(=O)O)C(=O)O)[C@@H](C)O` [Tet Tox 830-843, reference compound], for which the “Capacity to bind purified IA^b, IC50” value on IA^b is “did not bind IA^b appreciably”. In addition, in the test on human PBMC T cell lines, the “Donors with significant (>10,000 cpm) T cell response / donors tested, second stimulation” value was 3/12 and the “Donors with significant (>10,000 cpm) T cell response / donors tested, third stimulation” value is listed as 7/12. Further, the “T cell proliferative response of primed lymph node cells” value in the test with C57BL/6J (H-2^b+) mice was “unable to generate a specific T cell proliferative response”.
